Converted amounts (≈) assume the structure as drawn.
What was measured:
Escherichia coli [1] = test: Antibacterial activity against Escherichia coli 1924 measured after 24 hrs by two-fold serial dilution method; type: functional; conditions: Escherichia coli, 1924, 24 h
Streptococcus mutans = test: Antibacterial activity against Streptococcus mutans 3065 measured after 24 hrs by two-fold serial dilution method; type: functional; conditions: Streptococcus mutans, 3065, 24 h
Staphylococcus aureus [2] = test: Antibacterial activity against Staphylococcus aureus 4220 measured after 24 hrs by two-fold serial dilution method; type: functional; conditions: Staphylococcus aureus, 4220, 24 h
Escherichia coli [3] = test: Antibacterial activity against Escherichia coli 1356 measured after 24 hrs by two-fold serial dilution method; type: functional; conditions: Escherichia coli, 1356, 24 h
Candida albicans [4] = test: Antifungal activity against Candida albicans 7535 measured after 24 hrs by two-fold serial dilution method; type: functional; conditions: Candida albicans, 7535, 24 h
Staphylococcus aureus [5] = test: Antibacterial activity against methicillin-resistant Staphylococcus aureus 3167 measured after 24 hrs by two-fold serial dilution method; type: functional; conditions: Staphylococcus aureus, 3167, 24 h
Mus musculus [6] = test: Antiinflammatory activity in mouse assessed as inhibition of xylene-induced ear edema at 100 mg/kg, ip administered 30 mins before xylene challenge measured after 30 mins relative to DMSO-control; type: functional
Salmonella typhimurium [7] = test: Antibacterial activity against Salmonella typhimurium 1926 measured after 24 hrs by two-fold serial dilution method; type: functional, Salmonella enterica subsp. enterica serovar Typhimurium; conditions: Salmonella enterica, 1926, 24 h
Staphylococcus aureus [8] = test: Antibacterial activity against quinolone-resistant Staphylococcus aureus 3505 measured after 24 hrs by two-fold serial dilution method; type: functional; conditions: Staphylococcus aureus, 3505, 24 h
Staphylococcus aureus [9] = test: Antibacterial activity against methicillin-resistant Staphylococcus aureus 3506 measured after 24 hrs by two-fold serial dilution method; type: functional; conditions: Staphylococcus aureus, 3506, 24 h
Staphylococcus aureus [10] = test: Antibacterial activity against Staphylococcus aureus 209 measured after 24 hrs by two-fold serial dilution method; type: functional; conditions: Staphylococcus aureus, 209, 24 h
Staphylococcus aureus [11] = test: Antibacterial activity against Staphylococcus aureus 503 measured after 24 hrs by two-fold serial dilution method; type: functional; conditions: Staphylococcus aureus, 503, 24 h
Pseudomonas aeruginosa = test: Antibacterial activity against Pseudomonas aeruginosa 2742 measured after 24 hrs by two-fold serial dilution method; type: functional; conditions: Pseudomonas aeruginosa, 2742, 24 h
Staphylococcus aureus [12] = test: Antibacterial activity against quinolone-resistant Staphylococcus aureus 3519 measured after 24 hrs by two-fold serial dilution method; type: functional; conditions: Staphylococcus aureus, 3519, 24 h
[13] = Cytotoxicity against human HeLa cells assessed as reduction in cell viability measured after 24 hrs by MTT assay; type: toxicity, cell-based
Mus musculus [14] = test: Antiinflammatory activity in mouse assessed as inhibition of xylene-induced ear edema at 100 mg/kg, po administered 1 hr before xylene challenge measured after 3 hrs; type: functional
Mus musculus [15] = test: Antiinflammatory activity in mouse assessed as inhibition of xylene-induced ear edema at 25 mg/kg, po administered 2 hrs before xylene challenge measured after 3 hrs; type: functional
Candida albicans [16] = test: Potency index, ratio of fluconazole MIC to compound MIC against Candida albicans 7535; type: functional
Mus musculus [17] = test: Antiinflammatory activity in mouse assessed as inhibition of xylene-induced ear edema at 100 mg/kg, po administered 2 hrs before xylene challenge measured after 3 hrs; type: functional
[18] = Cytotoxicity against human L02 cells assessed as reduction in cell viability measured after 24 hrs by MTT assay; type: toxicity, cell-based
Salmonella typhimurium [19] = test: Potency index, ratio of moxifloxin MIC to compound MIC against Salmonella typhimurium 1926; type: functional, Salmonella enterica subsp. enterica serovar Typhimurium
Mus musculus [20] = test: Antiinflammatory activity in mouse assessed as inhibition of xylene-induced ear edema at 100 mg/kg, po administered 5 hrs before xylene challenge measured after 3 hrs; type: functional
Mus musculus [21] = test: Antiinflammatory activity in mouse assessed as inhibition of xylene-induced ear edema at 100 mg/kg, po administered 3 hrs before xylene challenge measured after 3 hrs; type: functional
[22] = Cytotoxicity against human Hep3B cells assessed as reduction in cell viability measured after 24 hrs by MTT assay; type: toxicity, cell-based, Hep 3B2
Mus musculus [23] = test: Antiinflammatory activity in mouse assessed as inhibition of xylene-induced ear edema at 50 mg/kg, po administered 2 hrs before xylene challenge measured after 3 hrs; type: functional
Salmonella typhimurium [24] = test: Potency index, ratio of gatifloxacin MIC to compound MIC against Salmonella typhimurium 1926; type: functional, Salmonella enterica subsp. enterica serovar Typhimurium
Mus musculus [25] = test: Antiinflammatory activity in mouse assessed as inhibition of xylene-induced ear edema at 100 mg/kg, po administered 24 hrs before xylene challenge measured after 3 hrs; type: functional
Mus musculus [26] = test: Antiinflammatory activity in mouse assessed as inhibition of xylene-induced ear edema at 100 mg/kg, po administered 4 hrs before xylene challenge measured after 3 hrs; type: functional

SMILES	MIC (Escherichia coli [1])	MIC (Streptococcus mutans)	MIC (Staphylococcus aureus [2])	MIC (Escherichia coli [3])	MIC (Candida albicans [4])	MIC (Staphylococcus aureus [5])	inhibition in vivo at 100 mg/kg (Mus musculus [6])	MIC (Salmonella typhimurium [7])	MIC (Staphylococcus aureus [8])	MIC (Staphylococcus aureus [9])	MIC (Staphylococcus aureus [10])	MIC (Staphylococcus aureus [11])	MIC (Pseudomonas aeruginosa)	MIC (Staphylococcus aureus [12])	other results
O=C(N/N=C/c1ccc(/C=C/C(=O)c2ccccc2Br)cc1)c1ccncc1	> 64 µg/mL	32 µg/mL (≈ 73.7 µM)	64 µg/mL (≈ 147 µM)	> 64 µg/mL	64 µg/mL (≈ 147 µM)	> 64 µg/mL	48.7%	> 64 µg/mL	> 64 µg/mL	> 64 µg/mL	64 µg/mL (≈ 147 µM)	> 64 µg/mL	> 64 µg/mL	> 64 µg/mL	
N=C(N)N/N=C/c1ccc(/C=C/C(=O)c2ccc(Cl)cc2Cl)cc1	2 µg/mL (≈ 5.54 µM)	2 µg/mL (≈ 5.54 µM)	2 µg/mL (≈ 5.54 µM)	8 µg/mL (≈ 22.1 µM)	1 µg/mL (≈ 2.77 µM)	8 µg/mL (≈ 22.1 µM)	92.5%	1 µg/mL (≈ 2.77 µM)	8 µg/mL (≈ 22.1 µM)	8 µg/mL (≈ 22.1 µM)	2 µg/mL (≈ 5.54 µM)	2 µg/mL (≈ 5.54 µM)	2 µg/mL (≈ 5.54 µM)	16 µg/mL (≈ 44.3 µM)	IC50 at 24 h [13]: 8.7 µg/mL (≈ 24.1 µM); inhibition in vivo at 100 mg/kg (Mus musculus [14]): 20.7%; inhibition in vivo at 25 mg/kg (Mus musculus [15]): 17.6%; Ratio (Candida albicans [16]): 2; inhibition in vivo at 100 mg/kg (Mus musculus [17]): 34.2 to 43.5%; IC50 at 24 h [18]: 18.1 µg/mL (≈ 50.1 µM); Ratio (Salmonella typhimurium [19]): 1; inhibition in vivo at 100 mg/kg (Mus musculus [20]): 11.3%; inhibition in vivo at 100 mg/kg (Mus musculus [21]): 26.4%; IC50 at 24 h [22]: 15.3 µg/mL (≈ 42.4 µM); inhibition in vivo at 50 mg/kg (Mus musculus [23]): 33.7%; Ratio (Salmonella typhimurium [24]): 1 - 2; inhibition in vivo at 100 mg/kg (Mus musculus [25]): 5.52%; inhibition in vivo at 100 mg/kg (Mus musculus [26]): 16.9%
N=C(N)N/N=C/c1ccc(/C=C/C(=O)c2cccc(Br)c2)cc1	2 µg/mL (≈ 5.39 µM)	2 µg/mL (≈ 5.39 µM)	2 µg/mL (≈ 5.39 µM)	8 µg/mL (≈ 21.5 µM)	2 µg/mL (≈ 5.39 µM)	2 µg/mL (≈ 5.39 µM)	49.7%	1 µg/mL (≈ 2.69 µM)	2 µg/mL (≈ 5.39 µM)	2 µg/mL (≈ 5.39 µM)	2 µg/mL (≈ 5.39 µM)	2 µg/mL (≈ 5.39 µM)	2 µg/mL (≈ 5.39 µM)	4 µg/mL (≈ 10.8 µM)	Ratio (Candida albicans [16]): 2; Ratio (Salmonella typhimurium [19]): 1; Ratio (Salmonella typhimurium [24]): 1 - 2
O=C(/C=C/c1ccc(/C=N/NC(=O)c2ccncc2)cc1)c1cccc(Br)c1	> 64 µg/mL	> 64 µg/mL	64 µg/mL (≈ 147 µM)	> 64 µg/mL	> 64 µg/mL	32 µg/mL (≈ 73.7 µM)	14%	> 64 µg/mL	64 µg/mL (≈ 147 µM)	32 µg/mL (≈ 73.7 µM)	64 µg/mL (≈ 147 µM)	64 µg/mL (≈ 147 µM)	> 64 µg/mL	64 µg/mL (≈ 147 µM)	
O=C(/C=C/c1ccc(/C=N/NC(=O)c2ccncc2)cc1)c1ccc(F)cc1	64 µg/mL (≈ 171 µM)	64 µg/mL (≈ 171 µM)	32 µg/mL (≈ 85.7 µM)	64 µg/mL (≈ 171 µM)	> 64 µg/mL	32 µg/mL (≈ 85.7 µM)	51.1%	> 64 µg/mL	32 µg/mL (≈ 85.7 µM)	32 µg/mL (≈ 85.7 µM)	32 µg/mL (≈ 85.7 µM)	64 µg/mL (≈ 171 µM)	> 64 µg/mL	32 µg/mL (≈ 85.7 µM)	
O=C(N/N=C/c1ccc(/C=C/C(=O)c2ccccc2Cl)cc1)c1cccc(Cl)c1	> 64 µg/mL	> 64 µg/mL	32 µg/mL (≈ 75.6 µM)	> 64 µg/mL	> 64 µg/mL	32 µg/mL (≈ 75.6 µM)	43%	> 64 µg/mL	32 µg/mL (≈ 75.6 µM)	32 µg/mL (≈ 75.6 µM)	32 µg/mL (≈ 75.6 µM)	32 µg/mL (≈ 75.6 µM)	> 64 µg/mL	32 µg/mL (≈ 75.6 µM)	
O=C(N/N=C/c1ccc(/C=C/C(=O)c2ccccc2F)cc1)c1ccncc1	64 µg/mL (≈ 171 µM)	16 µg/mL (≈ 42.9 µM)	64 µg/mL (≈ 171 µM)	64 µg/mL (≈ 171 µM)	> 64 µg/mL	64 µg/mL (≈ 171 µM)	51.2%	> 64 µg/mL	64 µg/mL (≈ 171 µM)	64 µg/mL (≈ 171 µM)	64 µg/mL (≈ 171 µM)	64 µg/mL (≈ 171 µM)	> 64 µg/mL	64 µg/mL (≈ 171 µM)	
COc1ccc2c(c1)c(CC(=O)O)c(C)n2C(=O)c1ccc(Cl)cc1 [INDOMETHACIN]							89.4%								inhibition in vivo at 100 mg/kg (Mus musculus [14]): 12%; inhibition in vivo at 25 mg/kg (Mus musculus [15]): 4.85%; inhibition in vivo at 100 mg/kg (Mus musculus [17]): 30.9 to 33.3%; inhibition in vivo at 100 mg/kg (Mus musculus [20]): 10.3%; inhibition in vivo at 100 mg/kg (Mus musculus [21]): 18.6%; inhibition in vivo at 50 mg/kg (Mus musculus [23]): 22.8%; inhibition in vivo at 100 mg/kg (Mus musculus [25]): 5.01%; inhibition in vivo at 100 mg/kg (Mus musculus [26]): 15.6%
